Measured values as given in PMC9176691, “Design, synthesis and biological evaluation of novel diosgenin–benzoic acid mustard hybrids with potential anti-proliferative activities in human hepatoma HepG2 cells” (Journal of Enzyme Inhibition and Medicinal Chemistry, 2022).

What was measured:
[1] = system: HepG2 cells; assay: MTT anti-proliferative assay, HepG2; assay type: cell-based, human
[2] = system: MCF-7 cells; assay: MTT anti-proliferative assay, MCF-7; assay type: cell-based, human
[3] = system: HeLa cells; assay: MTT anti-proliferative assay, HeLa; assay type: cell-based; details: Homo sapiens, 48 h, read-out: IC50 HeLa
[4] = system: GES-1 cells; assay: MTT cytotoxicity assay, normal GES-1; assay type: cell-based, human
[5] = system: HepG2 cells; assay: Flow cytometric analysis of cell cycle distribution (PI); assay type: cell-based, human; details: 24 h
Method: HepG2 cells were seeded into 6-well plates and allowed to grow for a period of 12 h. After incubation with different concentrations of 14f (0, 5, 10, and 20 µM) for 24 h, the cells were trypsinized, washed with phosphate-buffered saline (PBS), and fixed in 1.5 ml of 75% ethanol for the night, at 4 °C, following which RNase and propidium iodide (PI) (Multi Sciences Biotech Co. Ltd.) were added to the cells. The cell cycle distribution and data processing were analysed using a flow cytometer (FACSCalibur™, BD Biosciences, USA).

[6] = system: HepG2 cells; assay: Apoptosis by flow cytometry (Annexin V-FITC/PI); assay type: cell-based, human; details: 48 h
Method: Briefly, HepG2 cells were incubated in 6-well plates for 24 h, and then treated with 14f (0, 5, 10, and 20 µM) for 48 h. Following that, the cells were washed once with pre-cold PBS, re-suspended in 300 µL of buffer solution, and stained with 10 µL of Annexin V-FITC and 5 µL of PI staining solution, under the conditions of 37 °C and absence of any light source, for 10 min. Finally, the samples were immediately measured using a flow cytometer. The percentages of apoptotic cells were determined on the CellQuest™ software (BD Biosciences).

[7] = system: HepG2 cells; assay: Mitochondrial membrane potential (JC-1, flow cytometry); assay type: cell-based, human; details: 48 h (lower quadrant value)
Method: HepG2 cells were plated into 6-well plates for 12 h. Following treatment with varying concentrations of 14f for 48 h, the cells were incubated with JC-1 dyeing working solution for 0.5 h at room temperature, then washed with staining buffer 3 times and re-suspended in 300 µL of staining buffer. The cells were finally assessed and analysed using a flow cytometer (FACSCalibur™).

[8] = system: CDK2, CDK4, CDK6, cyclin D1 and cyclin E1; assay type: cell-based, human
[9] = system: CDK2, CDK4, CDK6, cyclin D1, and cyclin E1; assay: Western blot of G0/G1 phase-related proteins; assay type: cell-based, human; details: HepG2 cells, 48 h
Method: (§1) To analyse the effect of compound 14f on protein levels, western blot assay was employed, as elaborated previously. The proteins were acquired by collecting HepG2 cells treated with varying concentrations of 14f for 48 h and adding them to lysis buffer, in an ice bath for 30 min. After quantitation of protein concentration using BCA assay, equal amounts of total protein were separated using 10% sodium dodecyl sulphate-polyacrylamide gel electrophoresis and then transferred onto polyvinylidene fluoride membranes. The membranes were incubated with 5% bovine serum albumin solution for 1.5 h at 37 °C, followed by incubation with primary antibody overnight, and finally secondary antibody for 2 h at 37 °C. The blots were detected using enhanced chemiluminescence reagent with a fully automatic gel imaging system (ChemiDoc™ MP, Bio-Rad). The relative expression was calculated by normalising the expression of the control group to 1 for comparison.

[10] = system: Bax, Bcl-2, caspase 9, and caspase 3; assay type: cell-based, human
[11] = system: caspase 9; assay: Caspase 9 activity in cell lysates; assay type: cell-based, human; details: HepG2 cell lysates, 48 h
Method: (§2) The activities of caspase 9 and caspase 3 in the cell lysates were evaluated as described previously. The harvested HepG2 cells treated with varying concentrations of 14f for 48 h were lysed using chilled 100 µL lysis buffer, to extract the total protein. The protein concentration was assessed using a Bradford Kit. The protein samples were incubated with assay buffer and colorimetric substrate (Ac-DEVD-pNA or Ac-LEHD-pNA) at room temperature for 2 h, according to the manufacturer’s protocol. The released pNAs were measured at the wavelength of 405 nm using a Multiskan® Spectrum system. The experiments were performed in triplicate.

[12] = system: caspase 3; assay: Caspase 3 activity in cell lysates; assay type: cell-based, human; details: HepG2 cell lysates, 48 h
Method: as §2

[13] = system: Bax and Bcl-2; assay: Western blot of Bax and Bcl-2; assay type: cell-based, human; details: HepG2 cells, 48 h
Method: as §1

[14] = system: HepG2 cells; assay: Hoechst 33342/PI staining, cell morphology; assay type: cell-based, human; details: HepG2, 5, 10 and 20 μM, 48 h
Method: First, HepG2 cells were plated into 6-well plates, at a density of 1 × 10^6 cells/well. Thereafter, 14f (0, 5, 10, and 20 µM) was added to the cells and they were incubated with it for 48 h; 0.1% DMSO was used as a vehicle control. The cellular morphology was then observed and photographed using a light microscope (Olympus, 1 × 51, Japan). Next, HepG2 cells were incubated with 14f (0, 5, 10, and 20 µM) for 48 h, after which the cells were collected and stained with a mixture of Hoechst 33342 and PI in buffer solution, for 20 min at room temperature. Finally, the cell samples were studied and photographed under a fluorescence microscope (Obeserve.A1, Zeiss, Germany).

CC(=O)OC1CCC2(C)C(=CCC3C2CCC2(C)C3CC3OC(CCC(C)C(=O)N4CCCN(C(=O)c5ccc(N(CCCl)CCCl)cc5)CC4)C(C)C32)C1 [Compound 14f, (22 R,25R)-(4–(1-homopiperazinyl)-4-(bis(2-chloroethyl)amino)benzamido)-3β-acetoxy-5-en-furostan-26-amide]
potency fold higher than that of Mitomycin C [1]: 14.4 fold
IC50 ([1]; Homo sapiens, HepG2, 48 h, read-out: IC50 HepG2): 2.26 ± 0.87 µM
fold more active than DSG [2]: about 1.7 fold
IC50 ([2]; Homo sapiens, MCF7, 48 h, read-out: IC50 MCF-7): 11.1 ± 1.01 µM
IC50 [3]: 41.6 ± 3.12 µM
SI [4]: >44.25
IC50 ([4]; Homo sapiens, GES1, 48 h, read-out: IC50 GES-1): > 100 µM
effect on the cell cycle ([5]; HepG2, 5, 10 and 20 µM): arrested the cell cycle at the G0/G1 phase
cells in G0/G1 phase ([5]; HepG2, 14f 5 μM): 33.76%
cells in G0/G1 phase ([5]; HepG2, 14f 10 μM): 40.38%
cells in G0/G1 phase ([5]; HepG2, 14f 20 μM): 46.40%
apoptotic cells ([6]; HepG2, 14f 5 μM): 9.80%
apoptotic cells ([6]; HepG2, 14f 10 μM): 14.38%
apoptotic cells ([6]; HepG2, 14f 20 μM): 28.13%
percentage of mitochondrial depolarisation ([7]; HepG2, JC-1, 14f 5 µM): 7.90%
percentage of mitochondrial depolarisation ([7]; HepG2, JC-1, 14f 10 µM): 15.55%
percentage of mitochondrial depolarisation ([7]; HepG2, JC-1, 14f 20 µM): 40.46%
genes levels of CDK2, CDK4, CDK6, cyclin D1 and cyclin E1 [8]: decreased
expression levels of CDK2, CDK4, CDK6, cyclin D1, and cyclin E1 proteins [9]: concentration-dependently downregulate
gene expression of Bax, caspase 9, and caspase 3 [10]: high gene expression
gene expression of Bcl-2 [10]: suppressed
enzyme activity of caspase 9 [11]: upregulated
enzyme activity of caspase 3 [12]: upregulated
protein levels of Bax [13]: upregulated
protein levels of Bcl-2 [13]: downregulation
apoptosis seen by Hoechst 33342/PI staining [14]: increase in the apoptosis of HepG2 cells
